Laboratory results from patent US8192962B2, “Processes for detecting toxic substances” (Daikin Industries, Ltd., priority 2001, dated 2012).

Test system: Energy system protein genes
Assay: DNA chip mRNA expression in yeast, energy system protein genes (Table 4)
Format: cell-based, Saccharomyces cerevisiae S288C
How it was run: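 Expression change after 2 h toxicant exposure (growth-inhibiting, sub-lethal) of log-phase S. cerevisiae S288C at 25° C. Oligo-dT-purified mRNA was labeled with Cy3-dUTP or Cy5-dUTP and hybridized >12 h at 65° C. to a genome-wide chip; ratio of scanned fluorescence to control.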

Structure (SMILES): N#Cc1c(Cl)c(Cl)c(Cl)c(C#N)c1Cl [(9), 2,4,5,6-tetrachloro-1,3-benzenedicarbonitrile]
- The level of expressed mRNA in the presence of chemical substance/The level of expressed mRNA in the absence of chemical substance (yeast gene YJL121C, cells incubated two hours with the chemical substance): 0.1
- The level of expressed mRNA in the presence of chemical substance/The level of expressed mRNA in the absence of chemical substance (yeast gene YJL166W, cells incubated two hours with the chemical substance): 1.3
- The level of expressed mRNA in the presence of chemical substance/The level of expressed mRNA in the absence of chemical substance (yeast gene YJL216C, cells incubated two hours with the chemical substance): 1.5
- The level of expressed mRNA in the presence of chemical substance/The level of expressed mRNA in the absence of chemical substance (yeast gene YJR009C): 1.1
- The level of expressed mRNA in the presence of chemical substance/The level of expressed mRNA in the absence of chemical substance (yeast gene YJR048W): 0.5
- The level of expressed mRNA in the presence of chemical substance/The level of expressed mRNA in the absence of chemical substance (yeast gene YJR121W, cells incubated two hours with the chemical substance): 0.8
- The level of expressed mRNA in the presence of chemical substance/The level of expressed mRNA in the absence of chemical substance (yeast gene YJR155W): 38.2
- The level of expressed mRNA in the presence of chemical substance/The level of expressed mRNA in the absence of chemical substance (yeast gene YKL016C, cells incubated two hours with the chemical substance): 1.3
- The level of expressed mRNA in the presence of chemical substance/The level of expressed mRNA in the absence of chemical substance (yeast gene YKL060C, cells incubated two hours with the chemical substance): 0.3
- The level of expressed mRNA in the presence of chemical substance/The level of expressed mRNA in the absence of chemical substance (yeast gene YKL141W, cells incubated two hours with the chemical substance): 0.8
- The level of expressed mRNA in the presence of chemical substance/The level of expressed mRNA in the absence of chemical substance (yeast gene YKL148C, cells incubated two hours with the chemical substance): 1.7
- The level of expressed mRNA in the presence of chemical substance/The level of expressed mRNA in the absence of chemical substance (yeast gene YKL150W): 1.1
- The level of expressed mRNA in the presence of chemical substance/The level of expressed mRNA in the absence of chemical substance (yeast gene YKR009C, cells incubated two hours with the chemical substance): 2.4
- The level of expressed mRNA in the presence of chemical substance/The level of expressed mRNA in the absence of chemical substance (yeast gene YKR058W, cells incubated two hours with the chemical substance, 25° C., YPD medium): 1.3
- The level of expressed mRNA in the presence of chemical substance/The level of expressed mRNA in the absence of chemical substance (yeast gene YKR097W): 1.9
- The level of expressed mRNA in the presence of chemical substance/The level of expressed mRNA in the absence of chemical substance (yeast gene YLL041C, cells incubated two hours with the chemical substance): 0.7
- The level of expressed mRNA in the presence of chemical substance/The level of expressed mRNA in the absence of chemical substance (yeast gene YLR038C, cells incubated two hours with the chemical substance): 0.4
- The level of expressed mRNA in the presence of chemical substance/The level of expressed mRNA in the absence of chemical substance (yeast gene YLR134W, cells incubated two hours with the chemical substance): 0.1
- The level of expressed mRNA in the presence of chemical substance/The level of expressed mRNA in the absence of chemical substance (yeast gene YLR258W, cells incubated two hours with the chemical substance): 0.8
- The level of expressed mRNA in the presence of chemical substance/The level of expressed mRNA in the absence of chemical substance (yeast gene YLR284C, cells incubated two hours with the chemical substance): 0.9
- The level of expressed mRNA in the presence of chemical substance/The level of expressed mRNA in the absence of chemical substance (yeast gene YLR295C, cells incubated two hours with the chemical substance, 25° C., YPD medium): 1.4
- The level of expressed mRNA in the presence of chemical substance/The level of expressed mRNA in the absence of chemical substance (yeast gene YLR304C, cells incubated two hours with the chemical substance): 0.1
- The level of expressed mRNA in the presence of chemical substance/The level of expressed mRNA in the absence of chemical substance (yeast gene YLR345W): 4.5
- The level of expressed mRNA in the presence of chemical substance/The level of expressed mRNA in the absence of chemical substance (yeast gene YLR354C, cells incubated two hours with the chemical substance): 0.4
- The level of expressed mRNA in the presence of chemical substance/The level of expressed mRNA in the absence of chemical substance (yeast gene YLR377C, cells incubated two hours with the chemical substance): 1.8
- The level of expressed mRNA in the presence of chemical substance/The level of expressed mRNA in the absence of chemical substance (yeast gene YLR395C, cells incubated two hours with the chemical substance): 1.0
- The level of expressed mRNA in the presence of chemical substance/The level of expressed mRNA in the absence of chemical substance (yeast gene YML087C): 1.9
- The level of expressed mRNA in the presence of chemical substance/The level of expressed mRNA in the absence of chemical substance (yeast gene YML120C, cells incubated two hours with the chemical substance): 1.3
- The level of expressed mRNA in the presence of chemical substance/The level of expressed mRNA in the absence of chemical substance (yeast gene YML129C, cells incubated two hours with the chemical substance): 1.4
- The level of expressed mRNA in the presence of chemical substance/The level of expressed mRNA in the absence of chemical substance (yeast gene YMR073C, cells incubated two hours with the chemical substance): 1.2
- The level of expressed mRNA in the presence of chemical substance/The level of expressed mRNA in the absence of chemical substance (yeast gene YMR118C): 9.3
- The level of expressed mRNA in the presence of chemical substance/The level of expressed mRNA in the absence of chemical substance (yeast gene YMR205C, cells incubated two hours with the chemical substance): 0.3
- The level of expressed mRNA in the presence of chemical substance/The level of expressed mRNA in the absence of chemical substance (yeast gene YMR261C, cells incubated two hours with the chemical substance): 1.6
- The level of expressed mRNA in the presence of chemical substance/The level of expressed mRNA in the absence of chemical substance (yeast gene YMR267W, cells incubated two hours with the chemical substance, 25° C., YPD medium): 0.4
- The level of expressed mRNA in the presence of chemical substance/The level of expressed mRNA in the absence of chemical substance (yeast gene YMR323W, cells incubated two hours with the chemical substance): 0.5
- The level of expressed mRNA in the presence of chemical substance/The level of expressed mRNA in the absence of chemical substance (yeast gene YNL071W): 1.1
- The level of expressed mRNA in the presence of chemical substance/The level of expressed mRNA in the absence of chemical substance (yeast gene YNL202W, cells incubated two hours with the chemical substance): 1.3
- The level of expressed mRNA in the presence of chemical substance/The level of expressed mRNA in the absence of chemical substance (yeast gene YNL241C): 3.4
- The level of expressed mRNA in the presence of chemical substance/The level of expressed mRNA in the absence of chemical substance (yeast gene YNL331C): 42.6
- The level of expressed mRNA in the presence of chemical substance/The level of expressed mRNA in the absence of chemical substance (yeast gene YOL086C, cells incubated two hours with the chemical substance): 0.1
- The level of expressed mRNA in the presence of chemical substance/The level of expressed mRNA in the absence of chemical substance (yeast gene YOL165C): 46.9
- The level of expressed mRNA in the presence of chemical substance/The level of expressed mRNA in the absence of chemical substance (yeast gene YOR142W, cells incubated two hours with the chemical substance): 1.1
- The level of expressed mRNA in the presence of chemical substance/The level of expressed mRNA in the absence of chemical substance (yeast gene YOR178C, cells incubated two hours with the chemical substance): 0.2
- The level of expressed mRNA in the presence of chemical substance/The level of expressed mRNA in the absence of chemical substance (yeast gene YOR388C, cells incubated two hours with the chemical substance): 0.1
- The level of expressed mRNA in the presence of chemical substance/The level of expressed mRNA in the absence of chemical substance (yeast gene YPL031C, cells incubated two hours with the chemical substance): 5.7
- The level of expressed mRNA in the presence of chemical substance/The level of expressed mRNA in the absence of chemical substance (yeast gene YPL061W, cells incubated two hours with the chemical substance): 1.3
- The level of expressed mRNA in the presence of chemical substance/The level of expressed mRNA in the absence of chemical substance (yeast gene YPL088W): 0.6
- The level of expressed mRNA in the presence of chemical substance/The level of expressed mRNA in the absence of chemical substance (yeast gene YPL171C): 60.0
- The level of expressed mRNA in the presence of chemical substance/The level of expressed mRNA in the absence of chemical substance (yeast gene YPL240C): 3.5
- The level of expressed mRNA in the presence of chemical substance/The level of expressed mRNA in the absence of chemical substance (yeast gene YPL262W, cells incubated two hours with the chemical substance): 1.4
- The level of expressed mRNA in the presence of chemical substance/The level of expressed mRNA in the absence of chemical substance (yeast gene YPL275W, cells incubated two hours with the chemical substance): 0.2
- The level of expressed mRNA in the presence of chemical substance/The level of expressed mRNA in the absence of chemical substance (yeast gene YPR048W, cells incubated two hours with the chemical substance): 4.0
- The level of expressed mRNA in the presence of chemical substance/The level of expressed mRNA in the absence of chemical substance (yeast gene YPR184W, cells incubated two hours with the chemical substance): 1.9
